According to PMC8208304 (2021):

Assays:
[1] = test system: S1 + S2 (split ATP aptamer / split G-quadruplex receptor) (DNA, aptamer, internal C12 spacer (iSpC12) after position 12 of strand 1 and after position 16 of strand 2) TGGGTGGGTTTTTTTACCTGGGGGAGTAT/TGCGGAGGAAGGTTTTTTTAGGGCGGGT; experiment: G4-hemin Amplex Red peroxidase fluorescence in LUVs; details: 100 mM Tris-HCl pH 7.0; functional readout; used instead of ATP; concentration not given
[2] = test system: FAM-S1 + TAMRA-S2 (DNA, aptamer, internal C12 spacer (iSpC12) after position 11 of strand 1 and after position 16 of strand 2) TGGGTGGGTTTTTTACCTGGGGGAGTAT/TGCGGAGGAAGGTTTTTTTAGGGCGGGT; experiment: FRET in LUVs; details: ATP 0-1.0 mM; FAM-S1:TAMRA-S2 1:5; Fa/Fd 0.4 to 0.5
[3] = test system: S1 + S2 (split ATP aptamer / split G-quadruplex receptor) (DNA, aptamer, internal C12 spacer (iSpC12) after position 12 of strand 1 and after position 16 of strand 2) TGGGTGGGTTTTTTTACCTGGGGGAGTAT/TGCGGAGGAAGGTTTTTTTAGGGCGGGT; experiment: SYBR Green I fluorescence melting; details: derived from two Tm (46.2 to 55.0 °C); 1.0 mM ATP; 1.0 μM strands; 100 mM Tris-HCl pH 7.4
[4] = test system: S1 + S2 (split ATP aptamer / split G-quadruplex receptor) (DNA, aptamer, internal C12 spacer (iSpC12) after position 12 of strand 1 and after position 16 of strand 2) TGGGTGGGTTTTTTTACCTGGGGGAGTAT/TGCGGAGGAAGGTTTTTTTAGGGCGGGT; experiment: ThT fluorescence enhancement at 504 nm; details: 2.2-fold with 1.0 mM ATP; ThT 20 μM; 1.0 μM strands; 100 mM Tris-HCl pH 7.4
[5] = test system: S1 + S2 (split ATP aptamer / split G-quadruplex receptor) (DNA, aptamer, internal C12 spacer (iSpC12) after position 12 of strand 1 and after position 16 of strand 2) TGGGTGGGTTTTTTTACCTGGGGGAGTAT/TGCGGAGGAAGGTTTTTTTAGGGCGGGT; experiment: G4-hemin peroxidase activity (Amplex Red) in LUVs; details: ATP 0-1.0 mM; hemin 4 μM; 100 mM Tris-HCl pH 7.0; functional readout

For `Nc1nc2c(ncn2[C@@H]2O[C@H](CO)[C@@H](O)[C@H]2O)c(=O)[nH]1`, which binding [1] is on record?
Its binding is “no”.

For `Nc1ncnc2c1ncn2[C@@H]1O[C@H](COP(=O)(O)OP(=O)(O)OP(=O)(O)O)[C@@H](O)[C@H]1O`, which binding [2] is on record?
The binding was “yes”.

What about the “ΔTm (melting temperature shift)” value [3] of the same compound?
Its value is 8.8 °C.

For `O=c1ccn([C@@H]2O[C@H](CO)[C@@H](O)[C@H]2O)c(=O)[nH]1`, which binding [1] is on record?
The binding was “no”.

`Cc1ccc2c(c1)sc(-c1ccc(N(C)C)cc1)[n+]2C` was tested. Which binding [4] did it give?
The binding was “yes”.

How did the binding [5] turn out when `C=CC1=C(C)C2=Cc3c(C=C)c(C)c4[n]3[Fe]([Cl])[n]3c(c(C)c(CCC(=O)O)c3=CC3=NC(=C4)C(C)=C3CCC(=O)O)=CC1=N2` was run?
The binding was “yes”.

`Nc1ccn([C@@H]2O[C@H](CO)[C@@H](O)[C@H]2O)c(=O)n1` was tested. Which binding [1] did it give?
Its binding is “no”.
